Data taken from PMC8037814, “Polymorphic Characterization, Pharmacokinetics, and Anti-Inflammatory Activity of Ginsenoside Compound K Polymorphs” (Molecules, 2021).
Several values for one entry are separate records, joined by “and”; a condition that tells them apart may be missing. Equal values may be shown once. Read-outs that look alike come from different tables or passages of the source.

Columns and labels:
[1] = Pharmacokinetics after oral administration of CK polymorphs in rats (20 mg/kg); type: in vivo, Sprague-Dawley rats; conditions: 20 mg/kg; for bioavailability: p.o. 20 mg/kg vs i.v. 10 mg/kg, dose-adjusted AUC ratio, read-out: Fabs (absolute bioavailability); for half-life: read-out: t1/2z (converted); for Vd/F: read-out: Vz/F
[2] = tested on: carrageenan-induced acute paw inflammation; assay: Paw swelling test induced by carrageenan in rats; type: in vivo, Sprague-Dawley rats; parameters: paw volume: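 right hind paw volume measured with a plethysmometer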; conditions: listed as From I; for paw volume / paw edema: mean±SD of 6 rats; for edema inhibition: versus model group
Experimental: Rats were divided into 11 groups of six animals each (sex in half): the normal group, the model group, indomethacin group (1 mg/kg), and form I, II, III, IV groups (each form set 10 mg/kg and 20 mg/kg groups, respectively). Indomethacin and CK were ground and suspended in 0.5% CMC-Na solution. […] The same volume of saline was injected into the normal group. […] Paw edema and inhibitory rate were calculated as the following formula, and the differences among groups were compared with the t-test. Paw edema (%) = (Vn − V0)/V0 × 100%. Vn: paw volume at different time intervals after carrageenan injection. V0: paw volume before carrageenan injection. Inhibitory rate (%) = (Em − Ee)/Em × 100%. Em: paw edema of the model group. Ee: paw edema of the experimental group.

[3] = DSC thermal analysis of CK polymorphs; type: physicochemical; conditions: 20 K/min from 20 to 400 °C, dry nitrogen flow
Experimental: DSC measurements were performed on a DSC204 Phoenix calorimeter (NETZSCH, Selb, Germany) with a heating rate of 20 K/min from 20 to 400 °C. The dry nitrogen flow was about 50 mL/min. Data were analyzed using NETZSCH analysis software.

[4] = Pharmacokinetics after oral administration of CK polymorphs in rats (20 mg/kg); type: in vivo, Sprague-Dawley rats; conditions: p.o. 20 mg/kg, individual rats 1-3
Experimental: All samples were analyzed with a triple quadrupole LC-MS/MS (API 4000 LC-MS/MS, AB Sciex, Framingham, MA, USA) coupled with an Agilent 1200 HPLC system (Agilent Technologies, Palo Alto, CA, USA). The MS was equipped with an electrospray system (ESI). The N2 gas temperature and ion-spray voltage were set to 550 °C and 4.5 kV, respectively. CK was measured in multiple reaction monitoring (MRM) mode using a negative electrospray ionization source at m/z 667.4 → 621.2 for CK (CID 25.6 v) and m/z 271.2 → 228.8 for internal standard (IS, (E)-5-(4-fluorostyryl)-2-isopropylbenzene-1,3-diol, Welichem Biotech Inc., Wayburne Drive Burnaby, BC, Canada) (CID 28.3 v) with a dwell time of 0.1 s.
Rats were divided randomly into 5 groups of six animals each (sex in half) and given 7 days to acclimatize to the facility before the experiments began. The four forms of CK were suspended in 0.5% sodium carboxymethyl cellulose (CMC-Na) solution and orally administered to rats at a dose of 20 mg/kg. A CK solution in a mixed solvent of dimethyl sulfoxide (DMSO)/castor oil/physiologic saline (3:5:92, v/v) was intravenously administered to the remaining group via the tail vein at a dose of 10 mg/kg. Blood samples were collected by retro-orbital puncture at the following times: 0.167, 0.333, 0.667, 1, 2, 3, 4, 6, 9, 12, and 24 h for the oral administration, and at 0.0083, 0.05, 0.133, 0.25, 0.5, 1, 2, 4, 6, and 9 h for the intravenous administration. Plasma samples were obtained by centrifuging a heparinized blood tube at 4000 rpm for 5 min and then stored at −70 °C until analysis.
The procedure for drug extraction from plasma samples was as follows: 0.2 mL acetonitrile, 0.2 mL plasma sample, and 10 μL IS (1 µg/mL) were added into a 1.5 mL Eppendorf-type tube. This mixture was vortexed for 1 min and then treated with 0.8 mL of methyl tert-butyl ether (MTBE) to precipitate the plasma proteins. After a mechanical vortex for 1 min and subsequent centrifugation (4000 rpm, 5 min), 0.8 mL of the supernatant was transferred and blow-dried with N2 at 40 °C in a water bath. Finally, the residue was dissolved in 120 μL of mobile phase, and then 10 μL was subjected to HPLC for analysis. […] Intra- and inter-day precision and accuracy never exceeded 15% by analyzing six replicate samples.
The CK pharmacokinetic parameters in rats, including the area under the curve (AUC(0–t) and AUC(0–∞)), mean residence time (MRT(0–t) and MRT(0–∞)), maximum concentration (Cmax), time to maximum concentration (Tmax), half-life (t1/2), apparent distribution volume (V), and total plasma clearance (CL), were derived from plasma concentration-time curves by using non-compartmental analysis (NCA) with DAS 2.0 software (Drug And Statistics, Mathematical Pharmacology Professional Committee of China, Shanghai, China). The absolute bioavailability (Fabs) was calculated from the dose-adjusted ratio of AUCp.o. to AUCi.v.. One-way analysis of variance (ANOVA) by SPSS 11.5 (SPSS Inc., Chicago, IL, USA) was conducted to compare the primary PK parameters.

[5] = female rats, p.o. 20 mg/kg, mean ± SD (n = 3)
[6] = female, Sprague-Dawley, rat, plasma, po, female rats, p.o. 20 mg/kg, mean ± SD (n = 3)
[7] = male rats, p.o. 20 mg/kg, mean ± SD (n = 3)
[8] = male, Sprague-Dawley, rat, plasma, po, male rats, p.o. 20 mg/kg, mean ± SD (n = 3)
[9] = 10 mg/kg p.o. qd 3 days, 3h after carrageenan
[10] = 10 mg/kg p.o. qd 3 days, 4h after carrageenan
[11] = 10 mg/kg p.o. qd 3 days, 5h after carrageenan
[12] = 10 mg/kg p.o. qd 3 days, 6h after carrageenan
[13] = 20 mg/kg p.o. qd 3 days, 3h after carrageenan
[14] = 20 mg/kg p.o. qd 3 days, 4h after carrageenan
[15] = 20 mg/kg p.o. qd 3 days, 5h after carrageenan
[16] = 20 mg/kg p.o. qd 3 days, 6h after carrageenan

CC(C)=CCCC(C)(OC1OC(CO)C(O)C(O)C1O)C1CCC2(C)C1C(O)CC1C3(C)CCC(O)C(C)(C)C3CCC12C [Form I, 20-O-β-D-glucopyranosyl-20(S)-protopanaxadiol]
t1/2z ([1]; female rats, p.o. 20 mg/kg, individual rats 1-3): 2.57 h and 2.56 h
AUC(0–t) [1, 5]: 2202.7 ± 237.26 ng·h/mL
AUC(0–∞) [1, 5]: 2216.0 ± 225.74 ng·h/mL
CLz/F [1, 5]: 152 ± 14.7 mL/min/kg
Cmax [1, 5]: 453.33 ± 134.83 ng/mL and 453.3 ± 134.8 ng/mL
Vz/F [1, 5]: 40.5 ± 14.2 L/kg
t1/2z [1, 5]: 3.0 ± 0.84 h
bioavailability ([1]; female, Sprague-Dawley, rat, plasma, po, female rats): 6.84%
half-life ([1]; female, Sprague-Dawley, rat, plasma, po, female rats, p.o. 20 mg/kg, individual rats 1-3): 4.03 h
AUC(0-inf) [1, 6]: 2220 ± 226 ng·h/mL
Vd/F [1, 6]: 40.5 ± 14.2 L/kg
half-life [1, 6]: 3.05 ± 0.84 h
Vz/F ([1]; male rats, p.o. 20 mg/kg, individual rats 1-3): 77.79 L/kg and 48.49 L/kg and 105.00 L/kg
AUC(0–t) [1, 7]: 1149.8 ± 430.17 ng·h/mL
AUC(0–∞) [1, 7]: 1188.0 ± 480.37 ng·h/mL
CLz/F [1, 7]: 312 ± 121 mL/min/kg
Cmax [1, 7]: 259.4 ± 144.2 ng/mL
Vz/F [1, 7]: 77.1 ± 28.3 L/kg
t1/2z [1, 7]: 3.0 ± 0.96 h
bioavailability ([1]; male, Sprague-Dawley, rat, plasma, po, male rats): 3.92%
AUC(0-t) [1, 8]: 1150 ± 430 ng·h/mL
CL/F ([1]; male, Sprague-Dawley, rat, plasma, po, male rats, p.o. 20 mg/kg, mean ± SD (n = 3), read-out: CLz/F (converted)): 312 mL/min/kg
Cmax ([1]; male, Sprague-Dawley, rat, plasma, po, male rats, p.o. 20 mg/kg, mean ± SD (n = 3), read-out: Cmax): 259 ± 144 ng/mL
Vd/F [1, 8]: 77.1 ± 28.3 L/kg
half-life [1, 8]: 2.97 ± 0.96 h
paw volume ([2]; 10 mg/kg p.o. qd 3 days, 0h (before carrageenan)): 1.60±0.13
paw edema [2, 9]: 61.02±11.75%
paw volume [2, 9]: 2.57±0.14
edema inhibition [2, 9]: 5.06%
paw edema [2, 10]: 51.30±10.45%
paw volume [2, 10]: 2.42±0.19
edema inhibition [2, 10]: 17.74%
paw edema [2, 11]: 34.69±9.89%
paw volume [2, 11]: 2.15±0.16
edema inhibition [2, 11]: 32.99%
paw edema [2, 12]: 27.53±8.13%
paw volume [2, 12]: 2.03±0.08
edema inhibition [2, 12]: 29.97%
paw volume ([2]; 20 mg/kg p.o. qd 3 days, 0h (before carrageenan)): 1.62±0.13
paw edema [2, 13]: 52.64±19.00%
paw volume [2, 13]: 2.45±0.16
edema inhibition [2, 13]: 18.10%
paw edema [2, 14]: 43.25±16.04%
paw volume [2, 14]: 2.30±0.11
edema inhibition [2, 14]: 30.65%
paw edema [2, 15]: 31.96±15.31%
paw volume [2, 15]: 2.12±0.08
edema inhibition [2, 15]: 38.25%
paw edema [2, 16]: 24.52±13.39%
paw volume [2, 16]: 2.00±0.09
edema inhibition [2, 16]: 37.62%
DSC onset of the decomposition endotherm (thermodynamical stability) [3]: 267.5 °C
AUC(0-t) ([4]; female rats): 2017.26 ng·h/mL and 2120.78 ng·h/mL and 2470.06 ng·h/mL
AUC(0-∞) ([4]; female rats): 2050.82 ng·h/mL and 2124.00 ng·h/mL and 2473.25 ng·h/mL
CLz/F ([4]; female rats): 162 mL/min/kg and 157 mL/min/kg and 135 mL/min/kg
Cmax ([4]; female rats): 440.01 ng/mL and 325.66 ng/mL and 594.33 ng/mL
Vz/F ([4]; female rats): 56.64 L/kg and 34.89 L/kg and 29.88 L/kg
AUC(0-t) ([4]; male rats): 762.48 ng·h/mL and 1612.79 ng·h/mL and 1074.22 ng·h/mL
AUC(0-∞) ([4]; male rats): 762.82 ng·h/mL and 1709.08 ng·h/mL and 1092.09 ng·h/mL
CLz/F ([4]; male rats): 437 mL/min/kg and 195 mL/min/kg and 305.2 mL/min/kg
Cmax ([4]; male rats): 168.60 ng/mL and 425.66 ng/mL and 183.98 ng/mL
t1/2z ([4]; male rats): 2.87 h and 3.98 h and 2.06 h
